Ends that are not written are not given here.
Legend:
[1] = target: T1, renal rat membrane dipeptidase (DPEP-1) (Rattus norvegicus, UniProt P31430); assay: Binding of Alexa-488 conjugated peptides to Cos-7 cells transfected with renal rat membrane dipeptidase; details: Alexa-488 conjugate, on ice 30 minutes
T1 construct: expressed in transfected cells; host or cells: Cos-7
Experimental: Cells were incubated with LSALT or GFE-1 conjugated with Alexa-488 (Green), or control peptide conjugated with Alexa-488 (Green) on ice for 30 minutes. Cells were washed and fixed using 4% paraformaldehyde and immunofluorescence microscopy was performed to assess binding. Shown are representative photomicrographs of each experimental condition (n=2).
48 hours after transfection, cells were incubated with LSALT conjugated to Alexa-488 (green) on ice for 30 minutes. Cells were washed and flow cytometry was performed to assess binding. Shown are single parameter histographs for each experimental condition (n=2).

[2] = tested on: activated (TNFα and IL1β treated) HLMVEC; assay: Cancer cell binding to activated human lung microvascular endothelial cells; assay type: cell-based; details: 50 μM
Source text: LSALT decreases binding of metastatic cancer cells to human lung microvascular endothelial cells (HLMVEC) activated by TNFα and IL1β.

[3] = Circular dichroism spectroscopy of LSALT peptide and analogs; assay type: physicochemical; set-up: Inducible Helical Structure (50% TFE-benign): unit not given here
Experimental: The physical and chemical properties of protein therapeutics are critical factors that influence the ease of manufacturing, development and clinical use. The LSALT peptide was evaluated in terms of its solubility, aggregation state and stability using a variety of biophysical methods.
In circular dichroism spectroscopy the ellipticity value at 222 nm is a measure of a-helical content. 50% trifluoroethanol is a hydrophobic solvent and induces α-helical structure if the structure can be induced. All of the peptides tested can be induced to adopt α-helical structure. The peptides are random coils in benign conditions (non-denaturing). The buffer conditions were aqueous phosphate, pH 7.0.

[4] = Incubation in whole human blood, LC/MS of metabolites; assay type: in vitro ADME; details: 50 μg/mL, whole human blood (citrate or K2 EDTA), up to 120 min
Experimental: Plasma was separated for each sample and phosphoric acid added to stabilize peptide at each timepoint. Samples were assessed for LSALT and its' metabolites using LC/MS. LSALT metabolites were identified using PEAKS X and database searches against LSALT and the human proteome. […] Transfected cells were positively selected for using geneticin resistance and subcloned to generate stably transfected DPEP1 clones. Stably transfected DPEP1 HEK cells were resuspended and incubated with biotinylated LSALT fragment peptides (50 μM) for 1 hour at 37° C. before PBS washes. Bound biotinylated peptide was detected via secondary streptavidin fluorescent conjugate (30 min. incubation at 37° C.) and washed with PBS. Peptide binding was analyzed via flow cytometer. Percentage of peptide binding was compared relative to negative control. […] LysM^(gfp) mice were subjected to endotoxemia via intravenous injection of lipopolysaccharide (LPS, O111:B4) at a dose of 5 mg/kg. The kidney was imaged using multiphoton microscopy at 4 hours post-injection. Various LSALT fragments was used intravenously to pretreat mice 10 min. before LPS injection. Inflammation was quantified by manual counting of monocyte adhesion in single microscopy fields (LPS vs. Fragment C; n=3-6 fields/group; ***:p=0.004).

[5] = target: T2, human membrane dipeptidase (DPEP-1) (Homo sapiens, UniProt P16444); assay: Membrane dipeptidase enzyme activity assay (Gly-D-Phe, fluorometric); assay type: biochemical; details: lysates of transfected Cos1 cells, substrate Gly-D-Phe
T2 construct: expressed in transfected cells; host or cells: Cos-1
T2 sequence (P16444 17-385): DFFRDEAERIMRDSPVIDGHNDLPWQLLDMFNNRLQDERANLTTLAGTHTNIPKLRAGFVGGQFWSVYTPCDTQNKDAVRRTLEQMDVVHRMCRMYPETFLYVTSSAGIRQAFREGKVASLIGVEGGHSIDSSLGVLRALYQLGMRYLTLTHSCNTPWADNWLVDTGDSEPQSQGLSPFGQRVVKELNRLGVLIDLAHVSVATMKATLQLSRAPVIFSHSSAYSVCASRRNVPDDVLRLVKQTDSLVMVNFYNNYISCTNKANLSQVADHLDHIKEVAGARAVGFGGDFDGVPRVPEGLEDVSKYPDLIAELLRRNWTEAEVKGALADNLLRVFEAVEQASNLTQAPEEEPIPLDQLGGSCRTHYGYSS
Experimental: 24 hours after transfection, DPEP-1 expressing cells weer reseeded on 24 well collagen coated (neutralized) plates and allowed to grow for 24 hours at 37° C. […] Cells were blocked with FBS/NBSA/Tween in PBS for 30 minutes on ice. […] After incubation, cells were washed with PBS and stained with DAPI for 4 minutes on ice. Cells were again washed with PBS, fixed using 4% paraformaldehyde and immunofluoresence microscopy was performed to assess binding. Proteins from human DPEP-1 transfected cells were isolated after 48 hours using octyl-glucoside/RIPA in the absence of protease inhibitors. […] Proteins from transfected cells were isolated after 48 hours using octyl-glucoside/RIPA lysis buffer and western blot analysis was performed to assess DPEP-1 expression using DPEP-1 antibody (Sigma).
The fluorescence signal generated from the conversion of D-Phe to […] in the presence of D-aminoacidoxidase and peroxidase was measured using a fluorescence plate reader.
Proteins from DPEP-1 transfected cells were isolated after 48 hours using octyl-glucoside/RIPA lysis buffer and western blot analysis was performed to assess DPEP-1 expression using a DPEP-1 specific antibody (Proteintech) (FIG. 24B).

metastatic cancer cells = assay: Metastasis model in mice; assay type: in vivo; details: peptide 1 mM

T1 sequence (P31430 17-384): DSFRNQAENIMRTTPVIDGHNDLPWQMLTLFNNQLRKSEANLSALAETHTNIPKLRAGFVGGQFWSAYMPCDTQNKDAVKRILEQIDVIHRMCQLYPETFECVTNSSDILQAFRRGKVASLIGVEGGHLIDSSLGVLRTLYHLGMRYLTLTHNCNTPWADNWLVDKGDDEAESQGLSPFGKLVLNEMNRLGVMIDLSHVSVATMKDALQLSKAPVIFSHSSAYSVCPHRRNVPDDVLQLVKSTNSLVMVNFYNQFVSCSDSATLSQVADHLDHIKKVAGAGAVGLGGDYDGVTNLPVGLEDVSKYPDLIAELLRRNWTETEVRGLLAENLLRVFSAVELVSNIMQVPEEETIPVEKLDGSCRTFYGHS

binding to Cos-7 cells on DPEP-1 expression, flow cytometry [1]: Enhanced the Binding
binding to Cos-7 cells on DPEP-1 expression, immunofluorescence microscopy [1]: Enhanced the Binding
Inducible Helical Structure (50% TFE-benign) ([3]; 222 nm): 23,925
[θ] (222 nm) 50% TFE ([3]; 222 nm, 50% TFE): −72298
% Inducible Helical Structure (Inducible/50% TFE) ([3]; 222 nm, 50% TFE is considered 100% folded): 33.1%
[θ] (222 nm) Benign (No TFE) ([3]; 222 nm, benign buffer (100 mM KCl, 50 mM Na2HPO4/NaH2PO4, pH 7.0)): −48373
Substance: H-LSALTPSPSWLKYKAL [LSALT]
binding of murine melanoma cells (B16-F10) to activated HLMVEC [2]: decreased binding
binding of murine sarcoma cells (Tao-1) to activated HLMVEC [2]: decreased binding
secondary structure by CD ([3]; aqueous buffer / benign conditions, pH 7.0): minima at 222 nm characteristic of a α-helical conformation
metabolism in whole blood [4]: metabolized in whole blood into smaller fragments
inhibition of human DPEP1 enzymatic activity [5]: do not inhibit membrane dipeptidase enzyme activity
tumor burden in livers (liver metastatic lesions) (metastatic cancer cells; animals injected with 4T1 murine breast cancer cells): reduces tumor burden in livers of animals injected with metastatic cancer cells
tumor burden in livers and lungs (metastatic cancer cells; animals injected with metastatic cancer cells): reduces tumor burden in livers and lungs
